pIC50: −log10 of the molar value. Like-named read-outs stand apart in the source and are kept apart here.
Tests used:
[1] = tested on: LAPC4 prostate cancer cells, which express the AKT1 E17K allele; experiment: Antiproliferative effects in LAPC4 cells (CellTiter Glo, 72 h); format: cell-based; conditions: read-out: LAPC4 proliferation IC50
Procedure, shortened: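 IC50 values reflect 72 h compound treatment of cells plated at 1,000 per well, with CellTiter Glo luminescence as the viability read-out.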

AKT1 E17K = biological target: T1, AKT1 E17K (Homo sapiens, UniProt P31749, E17K); experiment: Live cell AKT1 E17K target engagement by NanoBRET competitive probe displacement in HEK293 cells; format: binding; conditions: NanoBRET live cell target engagement, HEK293 cells, 2 h at 37° C.
T1 construct: expressed in transfected cells; host or cells: HEK293
T1 sequence (P31749 whole entry E17K): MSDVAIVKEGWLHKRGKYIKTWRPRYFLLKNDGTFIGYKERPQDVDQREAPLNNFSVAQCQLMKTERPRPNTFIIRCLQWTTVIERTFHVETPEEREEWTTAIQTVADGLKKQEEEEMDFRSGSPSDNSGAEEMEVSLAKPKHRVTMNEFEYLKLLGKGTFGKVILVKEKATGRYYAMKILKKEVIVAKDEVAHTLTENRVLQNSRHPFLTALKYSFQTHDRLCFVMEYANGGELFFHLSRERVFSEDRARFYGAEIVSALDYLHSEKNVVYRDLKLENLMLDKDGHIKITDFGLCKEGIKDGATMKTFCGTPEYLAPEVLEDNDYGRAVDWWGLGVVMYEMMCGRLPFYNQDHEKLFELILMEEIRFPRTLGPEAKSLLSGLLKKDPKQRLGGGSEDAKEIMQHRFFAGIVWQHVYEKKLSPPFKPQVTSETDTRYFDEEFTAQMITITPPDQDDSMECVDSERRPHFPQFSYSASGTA
Procedure, shortened: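 Live-cell NanoBRET: HEK293, kinase-NanoLuc fusion, ATP-competitive fluorescent tracer ~EC50, 2 h 37° C, extracellular NanoLuc inhibitor present; IC50 from log(inhibitor)–response Hill fit.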

AKT1 WT = biological target: T2, AKT1 WT (Homo sapiens, UniProt P31749); experiment: Live cell AKT1 WT target engagement by NanoBRET competitive probe displacement in HEK293 cells; format: binding; conditions: NanoBRET live cell target engagement, HEK293 cells, 2 h at 37° C.; read-out: AKT1 WT IC50
T2 construct: expressed in transfected cells; host or cells: HEK293
T2 sequence (P31749 whole entry): as the sequence (P31749 whole entry E17K) above, with K17E counted along it

AKT2 = biological target: T3, AKT2 (Homo sapiens, UniProt P31751); experiment: Live cell AKT2 target engagement by NanoBRET competitive probe displacement in HEK293 cells; format: binding; conditions: NanoBRET live cell target engagement, HEK293 cells, 2 h at 37° C.; read-out: AKT2 IC50
T3 construct: expressed in transfected cells; host or cells: HEK293
T3 sequence (P31751 whole entry): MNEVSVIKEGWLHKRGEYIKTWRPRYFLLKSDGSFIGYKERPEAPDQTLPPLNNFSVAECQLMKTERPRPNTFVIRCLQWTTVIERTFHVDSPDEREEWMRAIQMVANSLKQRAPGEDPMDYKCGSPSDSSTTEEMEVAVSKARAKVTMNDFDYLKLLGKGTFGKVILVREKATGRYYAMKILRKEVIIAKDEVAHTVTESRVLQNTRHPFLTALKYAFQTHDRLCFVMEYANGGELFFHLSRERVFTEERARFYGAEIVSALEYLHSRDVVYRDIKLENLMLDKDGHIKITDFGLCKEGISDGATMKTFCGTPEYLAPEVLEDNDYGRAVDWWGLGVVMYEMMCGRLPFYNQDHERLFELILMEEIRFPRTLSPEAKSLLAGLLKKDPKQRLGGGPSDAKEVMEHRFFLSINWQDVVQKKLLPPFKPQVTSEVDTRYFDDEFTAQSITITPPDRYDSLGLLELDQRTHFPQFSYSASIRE

| Compound | pIC50 ([1]; Homo sapiens, LAPC4, 72 h) | pIC50 (AKT1 E17K) | pIC50 (AKT1 WT) | pIC50 (AKT2) | pIC50 [1] |
| --- | --- | --- | --- | --- | --- |
| Nc1ncccc1-c1nc2ccc(-n3cccn3)nc2n1-c1ccc2c(c1)CC[C@@H]2NC1CCN(c2cccnc2)CC1 [Compound 368] | 5.18 | 6.39 | 7.43 | 6.11 | – |
| CCc1coc(C(=O)N[C@H]2CCc3cc(-n4c(-c5cccnc5N)nc5ccc(-n6cccn6)nc54)ccc32)n1 [Compound 57, (S)—N-(5-(2-(2-aminopyridin-3-yl)-5-(1H-pyrazol-1-yl)-3H-imidazo[4,5-b]pyridin-3-yl)-2,3-dihydro-1H-inden-1-yl)-4-ethyloxazole-2-carboxamide] | 5.88 | 6.72 | 7.63 | 7.28 | – |
| Nc1ncccc1-c1nc2ccc(-n3cccn3)nc2n1-c1ccc2c(c1)CC[C@@H]2NC(=O)c1cc(O)c(O)cc1F [Compound 351, N-[(1S)-5-[2-(2-aminopyridin-3-yl)-5-(pyrazol-1-yl)imidazo[4,5-b]pyridin-3-yl]-2,3-dihydro-1H-inden-1-yl]-2-fluoro-4,5-dihydroxybenzamide] | 5.94 | 7.08 | 7.69 | 6.30 | – |
| Nc1ncccc1-c1nc2ccc(-n3cccn3)nc2n1-c1ccc2c(c1)CC[C@@H]2n1cnnc1CC1CC1 [Compound 384] | 5.90 | 7.03 | 7.88 | 6.28 | – |
| CCc1cn([C@H]2CCc3cc(-n4c(-c5cccnc5N)nc5ccc(-n6cccn6)nc54)ccc32)nn1 [Compound 285] | 5.65 | 7.40 | 7.63 | 6.22 | – |
| CN(C)c1ccc(F)c(C(=O)N[C@H]2CCc3cc(-n4c(-c5cccnc5N)nc5ccc(-n6cccn6)nc54)ccc32)c1 [Compound 7, N—{(S)-5-[2-(2-amino-3-pyridyl)-5-(1-pyrazolyl)-3H-1,3,4-triazainden-3-yl]-1-indanyl}5-(dimethylamino)-2-fluorobenzamide] | 5.59 | 6.49 | 8.14 | 6.93 | – |
| Nc1ncccc1-c1nc2ccc(-n3cccn3)nc2n1-c1ccc2c(c1)CC[C@@H]2NC(=O)COc1ccon1 [Compound 5, (S)—N-(5-(2-(2-aminopyridin-3-yl)-5-(1H-pyrazol-1-yl)-3H-imidazo[4,5-b]pyridin-3-yl)-2,3-dihydro-1H-inden-1-yl)-2-(isoxazol-3-yloxy)acetamide] | 5.03 | < 6.00 | 6.89 | 5.85 | – |
| Nc1ncccc1-c1nc2ccc(-n3cccn3)nc2n1-c1ccc2c(c1)CC[C@@H]2NC1CCN(c2ccccn2)C1 (stereo partly drawn) [Compound 387] | 5.35 | 6.42 | 8.02 | 6.45 | – |
| COc1nccc(C(=O)N[C@H]2CCc3cc(-n4c(-c5cccnc5N)nc5ccc(-n6cccn6)nc54)ccc32)c1C [Compound 284] | 5.97 | 6.84 | 8.29 | 7.98 | – |
| COc1cc(C(=O)N[C@H]2CCc3cc(-n4c(-c5cccnc5N)nc5ccc(-n6cccn6)nc54)ccc32)cc(C)n1 [Compound 280] | 6.29 | 7.47 | 8.56 | 8.15 | – |
| Nc1ncccc1-c1nc2ccc(-n3cccn3)nc2n1-c1ccc2c(c1)CC[C@@H]2NC1CCN(c2ccccn2)CC1 [Compound 277] | 5.61 | 6.44 | 7.60 | 6.31 | – |

Now from value to molecule:

| pIC50 ([1]; Homo sapiens, LAPC4, 72 h) | pIC50 (AKT1 E17K) | pIC50 (AKT1 WT) | pIC50 (AKT2) | pIC50 [1] | Compound |
| --- | --- | --- | --- | --- | --- |
| 6.24 | 8.13 | 8.68 | 8.01 | – | COc1cc(C(=O)N[C@H]2CCc3cc(-n4c(-c5cccnc5N)nc5ccc(-n6cccn6)nc54)ccc32)ccn1 [Compound 25, (S)—N-(5-(2-(2-aminopyridin-3-yl)-5-(1H-pyrazol-1-yl)-3H-imidazo[4,5-b]pyridin-3-yl)-2,3-dihydro-1H-inden-1-yl)-2-methoxyisonicotinamide] |
| 5.85 | 7.24 | 8.11 | 7.17 | – | Nc1ncccc1-c1nc2ccc(-n3cccn3)nc2n1-c1ccc2c(c1)CC[C@@H]2NC(=O)c1ccnc2sccc12 [Compound 363] |
| – | 7.30 | 7.99 | 6.65 | 6.39 | Nc1ncccc1-c1nc2ccc(-n3nccn3)nc2n1-c1ccc2c(c1)CC(F)[C@@H]2NC(=O)c1ccc(C(F)F)nc1 (stereo partly drawn) [Compound 349] |
| 5.84 | 7.28 | 7.88 | 6.37 | – | Nc1ncccc1-c1nc2ccc(-n3cccn3)nc2n1-c1ccc2c(c1)CC[C@@H]2NC(=O)c1ccn(C(F)F)n1 [Compound 174] |
| 5.84 | 7.78 | 8.08 | 6.56 | – | Nc1ncccc1-c1nc2ccc(-n3cccn3)nc2n1-c1ccc2c(c1)CC[C@@H]2NC(=O)c1ccc(O)c(C(F)(F)F)c1 [Compound 257] |
| 5.77 | 6.92 | 8.14 | 6.88 | – | COc1cc(C(=O)N[C@H]2CCc3cc(-n4c(-c5cccnc5N)nc5ccc(-n6cccn6)nc54)ccc32)cc(F)c1F [Compound 3, (S)—N-(5-(2-(2-aminopyridin-3-yl)-5-(1H-pyrazol-1-yl)-3H-imidazo[4,5-b]pyridin-3-yl)-2,3-dihydro-1H-inden-1-yl)-3,4-difluoro-5-methoxybenzamide] |
| 6.25 | 7.99 | 8.62 | 7.18 | – | Nc1ncccc1-c1nc2ccc(-n3cccn3)nc2n1-c1ccc2c(c1)CC[C@@H]2NC(=O)c1ccc(O)c(F)c1 [Compound 16, (S)—N-(5-(2-(2-aminopyridin-3-yl)-5-(1H-pyrazol-1-yl)-3H-imidazo[4,5-b]pyridin-3-yl)-2,3-dihydro-1H-inden-1-yl)-3-fluoro-4-hydroxybenzamide] |
| 6.01 | 7.13 | 8.59 | 7.90 | – | CN(C)c1cc(C(=O)N[C@H]2CCc3cc(-n4c(-c5cccnc5N)nc5ccc(-n6cccn6)nc54)ccc32)ccn1 [Compound 63, (S)—N-(5-(2-(2-aminopyridin-3-yl)-5-(1H-pyrazol-1-yl)-3H-imidazo[4,5-b]pyridin-3-yl)-2,3-dihydro-1H-inden-1-yl)-2-(dimethylamino)isonicotinamide] |
| < 5.00 | 6.09 | 7.15 | 5.36 | – | Nc1ncccc1-c1nc2ccc(-n3nccn3)nc2n1-c1ccc2c(c1)CC[C@@H]2NC1CCN(c2ccccn2)CC1 [Compound 366] |
| 5.46 | 6.48 | 7.31 | 5.90 | – | Cn1ccc(C(=O)N[C@H]2CCc3cc(-n4c(-c5cccnc5N)nc5ccc(-n6cccn6)nc54)ccc32)n1 [Compound 13, (S)—N-(5-(2-(2-aminopyridin-3-yl)-5-(1H-pyrazol-1-yl)-3H-imidazo[4,5-b]pyridin-3-yl)-2,3-dihydro-1H-inden-1-yl)-1-methyl-1H-pyrazole-3-carboxamide] |
| 5.92 | 6.41 | 8.34 | 7.33 | – | COc1ncc(C(=O)N[C@H]2CCc3cc(-n4c(-c5cccnc5N)nc5ccc(-n6cccn6)nc54)ccc32)cn1 [Compound 23, (S)—N-(5-(2-(2-aminopyridin-3-yl)-5-(1H-pyrazol-1-yl)-3H-imidazo[4,5-b]pyridin-3-yl)-2,3-dihydro-1H-inden-1-yl)-2-methoxypyrimidine-5-carboxamide] |
| 5.59 | 6.56 | 7.20 | 5.88 | – | Nc1ncccc1-c1nc2ccc(-n3cccn3)nc2n1-c1ccc2c(c1)CC[C@@H]2NC(=O)c1cnc(C(F)F)cn1 [Compound 322] |
| 6.35 | 7.58 | 8.07 | 7.60 | – | Nc1ncccc1-c1nc2ccc(-n3cccn3)nc2n1-c1ccc2c(c1)CC[C@@H]2NC(=O)c1cnc(C(F)F)c(Cl)c1 [Compound 365] |
| 5.87 | 6.77 | 7.76 | 6.86 | – | Nc1ncccc1-c1nc2ccc(-n3cccn3)nc2n1-c1ccc2c(c1)CC[C@@H]2NC(=O)c1ccc(Cl)nc1 [Compound 45, (S)—N-(5-(2-(2-aminopyridin-3-yl)-5-(1H-pyrazol-1-yl)-3H-imidazo[4,5-b]pyridin-3-yl)-2,3-dihydro-1H-inden-1-yl)-6-chloronicotinamide] |
| 6.04 | 7.31 | 7.96 | 6.91 | – | Nc1ncccc1-c1nc2ccc(-n3cccn3)nc2n1-c1ccc2c(c1)CC[C@@H]2NC(=O)c1cncc(F)c1 [Compound 32, (S)—N-(5-(2-(2-aminopyridin-3-yl)-5-(1H-pyrazol-1-yl)-3H-imidazo[4,5-b]pyridin-3-yl)-2,3-dihydro-1H-inden-1-yl)-5-fluoronicotinamide] |
| 6.23 | 7.59 | 8.39 | 7.72 | – | COc1ccc(C(=O)N[C@H]2CCc3cc(-n4c(-c5cccnc5N)nc5ccc(-n6cccn6)nc54)ccc32)cn1 [Compound 38, N-[(1S)-5-[2-(2-aminopyridin-3-yl)-5-(pyrazol-1-yl)imidazo[4,5-b]pyridin-3-yl]-2,3-dihydro-1H-inden-1-yl]-6-methoxypyridine-3-carboxamide] |
